According to patent US6191135A, “Neurokinin antagonists” (Boehringer Ingelheim KG, priority 1994, dated 2001):
pKi: −log10 of the molar value.

target: T1, NK1 -receptor (substance P-receptor) (Homo sapiens, UniProt P25103); test: NK1-receptor affinity: displacement of 125I labelled substance P on intact human lymphoblastoma cells (IM-9); assay type: binding; conditions: Ki, intact human lymphoblastoma cells (IM-9) expressing NK1-receptors
T1 construct: intact human lymphoblastoma cells (IM-9) which express NK1 -receptors; endogenous in cells; host or cells: IM-9 human lymphoblastoma cells
T1 sequence (P25103 whole entry): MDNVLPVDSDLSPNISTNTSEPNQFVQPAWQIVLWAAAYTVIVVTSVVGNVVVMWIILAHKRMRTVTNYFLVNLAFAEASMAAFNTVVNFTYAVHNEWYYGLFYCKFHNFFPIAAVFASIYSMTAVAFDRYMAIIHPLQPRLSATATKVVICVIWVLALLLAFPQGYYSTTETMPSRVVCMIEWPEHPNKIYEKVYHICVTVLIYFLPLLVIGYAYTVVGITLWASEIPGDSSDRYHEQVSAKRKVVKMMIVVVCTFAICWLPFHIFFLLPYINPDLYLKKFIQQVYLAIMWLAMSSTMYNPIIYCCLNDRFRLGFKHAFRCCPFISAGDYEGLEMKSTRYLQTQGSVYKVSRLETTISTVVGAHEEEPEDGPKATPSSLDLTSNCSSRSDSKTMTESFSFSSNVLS
Protocol: The receptor affinity for the NK1 -receptor (substance P-receptor) was determined on intact human lymphoblastoma cells (IM-9) which express NK1 -receptors, and the displacement of ^125 I labelled substance P was measured.

Compound	pKi
COc1ccccc1C(CNC(=O)Cc1ccc(Cl)cc1)N1CCN(C2CCCCC2)CC1 (centres unmarked) [Example 61, N-[2-(2-Methoxyphenyl)-2-(4-cyclohexylpiperazine-1-yl)-ethyl]-2-(4-chlorophenyl)-acetamide]	6.07

same assay, conditions: intact human lymphoblastoma cells (IM-9) expressing NK1-receptors, read-out: Ki

Compound	pKi
COc1ccccc1C(CNCc1cc(C(F)(F)F)cc(C(F)(F)F)c1)N1CCN(c2ccccc2)CC1 (centres unmarked) [Example 1, 3,5-Bistrifluoromethylbenzyl-[2-(2-methoxyphenyl)-2-(4-phenylpiperazine-1-yl)-ethyl]-amine]	6.48
COc1ccccc1C(CN(Cc1cc(C(F)(F)F)cc(C(F)(F)F)c1)C(C)=O)N1CCN(c2ccccc2)CC1 (centres unmarked) [Example 2, N-3,5-Bistrifluoromethylbenzyl-N-[2-(2-methoxyphenyl)-2-(4-phenylpiperazine-1-yl)-ethyl]-acetamide]	6.04
FC(F)(F)c1cc(CNCC(c2ccccc2)N2CCN(c3ccccc3)CC2)cc(C(F)(F)F)c1 (centres unmarked) [Example 3, 3,5-Bistrifluoromethylbenzyl-[2-phenyl-2-(4-phenylpiperazine-1-yl)-ethyl]-amine]	6.10
COc1ccccc1C(CNCc1cc(C(F)(F)F)cc(C(F)(F)F)c1)N1CCN(c2ccccc2C)CC1 (centres unmarked) [Example 19, 3,5-Bistrifluoromethylbenzyl-[2-(2-methoxyphenyl)-2-(4-(2-methylphenyl)-piperazine-1-yl)-ethyl]-amine]	6.24
COc1ccccc1C(CNCc1cc(C(F)(F)F)cc(C(F)(F)F)c1)N1CCN(c2cccc(C)c2C)CC1 (centres unmarked) [Example 20, 3,5-Bistrifluoromethylbenzyl-[2-(2-methoxyphenyl)-2-(4-(2,3-dimethylphenyl)-piperazine-1-yl)-ethyl]-amine]	6.28
COc1ccccc1C(CNCc1cc(C(F)(F)F)cc(C(F)(F)F)c1)N1CCN(Cc2ccccc2)CC1 (centres unmarked) [Example 22, 3,5-Bistrifluoromethylbenzyl-[2-(2-methoxyphenyl)-2-(4-benzylpiperazine-1-yl)-ethyl]-amine]	6.81
COc1ccccc1C(CNCc1cc(C(F)(F)F)cc(C(F)(F)F)c1)N1CCN(C(C)c2ccccc2)CC1 (centres unmarked) [Example 23, 3,5-Bistrifluoromethylbenzyl-[2-(2-methoxyphenyl)-2-(4-(1-phenylethyl)-piperazine-1-yl)-ethyl]-amine]	6.97
COc1ccccc1C(CNCc1cc(C(F)(F)F)cc(C(F)(F)F)c1)N1CCN(CCc2ccccc2)CC1 (centres unmarked) [Example 26, 3,5-Bistrifluoromethylbenzyl-[2-(2-methoxyphenyl)-2-(4-(2-phenylethyl)-piperazine-1-yl)-ethyl]-amine]	8.15
COc1ccccc1C(CNCc1cc(C(F)(F)F)cc(C(F)(F)F)c1)N1CCN(Cc2ccc3c(c2)OCO3)CC1 (centres unmarked) [Example 27, 3,5-Bistrifluoromethylbenzyl-[2-(2-methoxyphenyl)-2-(4-(3,4-methylenedioxybenzyl)-piperazine-1-yl)-ethyl]-amine]	6.95
COc1ccccc1C(CNCc1cc(C(F)(F)F)cc(C(F)(F)F)c1)N1CCN(c2ccccn2)CC1 (centres unmarked) [Example 28, 3,5-Bistrifluoromethylbenzyl-[2-(2-methoxyphenyl)-2-(4-(2-pyridyl)-piperazine-1-yl)-ethyl]-amine]	6.99
COc1ccccc1C(CNCc1cc(C(F)(F)F)cc(C(F)(F)F)c1)N1CCN(c2ccc3ccccc3n2)CC1 (centres unmarked) [Example 29, 3,5-Bistrifluoromethylbenzyl-[2-(2-methoxyphenyl)-2-(4-(2-quinolinyl)-piperazine-1-yl)-ethyl]-amine]	6.92
CN1CCN(C(CNCc2cc(C(F)(F)F)cc(C(F)(F)F)c2)c2ccccc2)CC1 (centres unmarked) [Example 30, 3,5-Bistrifluoromethylbenzyl-[2-phenyl-2-(4-methylperazine-1-yl)-ethyl]-amine]	7.05
COc1ccccc1C(CNCc1cc(C(F)(F)F)cc(C(F)(F)F)c1)N1CCN(C)CC1 (centres unmarked) [Example 31, 3,5-Bistrifluoromethylbenzyl-[2-(2-methoxyphenyl)-2-(4-methylpiperazine-1-yl)-ethyl]-amine]	7.03
CCCN1CCN(C(CNCc2cc(C(F)(F)F)cc(C(F)(F)F)c2)c2ccccc2OC)CC1 (centres unmarked) [Example 32, 3,5-Bistrifluoromethylbenzyl-[2-(2-methoxyphenyl)-2-(4-(1-propyl)-piperazine-1-yl)-ethyl]-amine]	7.64

Now from value to molecule:

pKi	Compound
6.43	COc1ccccc1C(CNCc1cc(C(F)(F)F)cc(C(F)(F)F)c1)N1CCCC(c2ccccc2)C1 (single isomer, unassigned) [Example 86, 3,5-Bistrifluoromethylbenzyl-[2-(2-methoxyphenyl)-2-(3-phenylpiperidine-1-yl)-ethyl]-amine]
7.42	COc1ccccc1C(CNCc1cc(C(F)(F)F)cc(C(F)(F)F)c1)N1CCN(C(C)C)CC1 (centres unmarked) [Example 34, 3,5-Bistrifluoromethylbenzyl-[2-(2-methoxyphenyl)-2-(4-(2-propyl)-piperazine-1-yl)-ethyl]-amine]
7.80	COc1ccccc1C(CNCc1cc(C(F)(F)F)cc(C(F)(F)F)c1)N1CCN(C2CCCC2)CC1 (centres unmarked) [Example 35, 3,5-Bistrifluoromethylbenzyl-[2-(2-methoxyphenyl)-2-(4-cyclopentylpiperazine-1-yl)-ethyl]-amine]
7.74	FC(F)(F)c1cc(CNCC(c2ccccc2)N2CCN(C3CCCCC3)CC2)cc(C(F)(F)F)c1 (centres unmarked) [Example 36, 3,5-Bistrifluoromethylbenzyl-[2-phenyl-2-(4-cyclohexylpiperazine-1-yl)-ethyl]-amine]
7.80	COc1ccccc1C(CNCc1cc(C(F)(F)F)cc(C(F)(F)F)c1)N1CCN(C2CCCCC2)CC1 (centres unmarked) [Example 39, 3,5-Bistrifluoromethylbenzyl-[2-(2-methoxyphenyl)-2-(4-cyclohexylpiperazine-1-yl)-ethyl]-amine]
7.43	FC(F)(F)c1cc(CNCC(c2ccc(Cl)c(Cl)c2)N2CCN(C3CCCCC3)CC2)cc(C(F)(F)F)c1 (centres unmarked) [Example 49, 3,5-Bistrifluoromethylbenzyl-[2-(3,4-dichlorophenyl)-2-(4-cyclohexylpiperazine-1-yl]-ethyl]-amine]
8.30	COc1ccccc1C(CNCc1cc(C(F)(F)F)cc(C(F)(F)F)c1)N1CCN(C2CCCCCC2)CC1 (centres unmarked) [Example 53, 3,5-Bistrifluoromethylbenzyl-[2-(2-methoxyphenyl)-2-(4-cycloheptylpiperazine-1-yl)-ethyl]-amine]
7.70	COc1ccccc1C(CNCc1cc(C(F)(F)F)cc(C(F)(F)F)c1)N1CCN(CCC2CCCCC2)CC1 (centres unmarked) [Example 54, 3,5-Bistrifluoromethylbenzyl-[2-(2-methoxyphenyl)-2-(4-(2-cyclohexylethyl)-piperazine-1-yl)-ethyl]-amine]
7.19	COc1ccccc1C(CNCc1cc(C(F)(F)F)cc(C(F)(F)F)c1)N1CCN(CCO)CC1 (centres unmarked) [Example 57, 3,5-Bistrifluoromethylbenzyl-[2-(2-methoxyphenyl)-2-(4-(2-hydroxyethyl)-piperazine-1-yl)-ethyl]-amine]
7.64	COc1ccccc1C(CNC(=O)c1cc(C(F)(F)F)cc(C(F)(F)F)c1)N1CCN(C2CCCCC2)CC1 (centres unmarked) [Example 58, N-[2-(2-Methoxyphenyl)-2-(4-cyclohexylpiperazine-1-yl)-ethyl]-3,5-bistrifluoromethylbenzamide]
6.56	COc1ccccc1C(CNC(=O)Cc1ccc(Cl)c(Cl)c1)N1CCN(C2CCCCC2)CC1 (centres unmarked) [Example 62, N-[2-(2-Methoxyphenyl)-2-(4-cyclohexylpiperazine-1-yl)-ethyl]-2-(3,4-dichlorophenyl)-acetamide]
